Earlier results on 3 compounds are cited in article PMC11676667, “Pharmacokinetics of Oral Cannabinoid Δ8-Tetrahydrocannabivarin and Its Main Metabolites in Healthy Participants” (Pharmaceuticals, 2024).

In general, Tmax refers to the time at which the peak concentration occurs.

SMILES strings stand for the structures. Read-outs that look alike come from different tables or passages of the source.

For series [1] the following is noted: oral MCT oil formulation, healthy participants; cited from earlier work.
Series [2] relates to CB1 receptor. The conditions noted are these: in vitro, cited from earlier work.
For series [3] the following is noted: oral cannabis brownie; cited from earlier work.

Turning to `CCCc1cc(O)c2c(c1)OC(C)(C)[C@@H]1CC=C(C)C[C@@H]21` [Δ8-THCV, Δ8-tetrahydrocannabivarin], in series [1], the safety and tolerability result is “safe and well tolerated”.

With `CCCc1cc(O)c2c(c1)OC(C)(C)[C@@H]1CCC(C)=C[C@@H]21` [Δ9-THCV, Δ9-tetrahydrocannabivarin], the “CB1 receptor antagonist potency relative to Δ8-THCV” value is on record as “approximately two times more potent” in series [2] (at low doses) and “two-fold more potent” in series [2].

Turning to `CCCc1cc(O)c2c(c1)OC(C)(C)[C@@H]1CCC(C(=O)O)=C[C@@H]21` [Δ9-THCV-COOH, 11-nor-9-carboxy-Δ9-THCV], the Tmax in series [3] is recorded as 3 h.
